Blank lines part the entries; values can stand above or below the molecule they belong to.
Experiments:
HeLa = experiment: Cytotoxicity against human HeLa cells assessed as reduction in cell viability measured for 48 hrs by crystal violet staining based analysis; format: functional
DU-145 = experiment: Growth inhibition of human DU-145 cells measured for 72 hrs by SRB assay; format: functional
Acetylcholinesterase = Acetylcholinesterase (Homo sapiens, UniProt P22303); experiment: Inhibition of human recombinant AChE using acetylthiocholine iodide substrate incubated for 5 mins by Ellman's spectrophotometric analysis
Sequence of Acetylcholinesterase (P22303 whole entry): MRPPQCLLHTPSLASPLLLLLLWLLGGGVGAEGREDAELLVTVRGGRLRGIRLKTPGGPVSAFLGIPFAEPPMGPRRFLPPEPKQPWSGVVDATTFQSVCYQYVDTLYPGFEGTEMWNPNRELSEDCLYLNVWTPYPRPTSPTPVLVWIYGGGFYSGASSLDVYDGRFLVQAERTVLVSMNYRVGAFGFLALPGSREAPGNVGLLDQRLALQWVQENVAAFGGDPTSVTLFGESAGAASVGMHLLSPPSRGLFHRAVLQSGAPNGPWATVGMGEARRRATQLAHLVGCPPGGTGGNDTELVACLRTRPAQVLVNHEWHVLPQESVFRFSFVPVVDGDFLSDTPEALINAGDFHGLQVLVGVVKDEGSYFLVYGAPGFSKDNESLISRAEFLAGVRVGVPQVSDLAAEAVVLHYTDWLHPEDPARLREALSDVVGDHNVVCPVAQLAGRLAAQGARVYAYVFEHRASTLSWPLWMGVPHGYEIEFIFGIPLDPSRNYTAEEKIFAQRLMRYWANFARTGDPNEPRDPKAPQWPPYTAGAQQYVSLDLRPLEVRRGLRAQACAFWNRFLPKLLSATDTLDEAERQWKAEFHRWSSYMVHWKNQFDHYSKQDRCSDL

[1] = target: ATP-dependent translocase ABCB1 (Homo sapiens, UniProt P08183); experiment: Inhibition of p-glycoprotein (unknown origin) expressed in MDCK-MDR1 cells; format: cell-based
Sequence of ATP-dependent translocase ABCB1 (P08183 whole entry): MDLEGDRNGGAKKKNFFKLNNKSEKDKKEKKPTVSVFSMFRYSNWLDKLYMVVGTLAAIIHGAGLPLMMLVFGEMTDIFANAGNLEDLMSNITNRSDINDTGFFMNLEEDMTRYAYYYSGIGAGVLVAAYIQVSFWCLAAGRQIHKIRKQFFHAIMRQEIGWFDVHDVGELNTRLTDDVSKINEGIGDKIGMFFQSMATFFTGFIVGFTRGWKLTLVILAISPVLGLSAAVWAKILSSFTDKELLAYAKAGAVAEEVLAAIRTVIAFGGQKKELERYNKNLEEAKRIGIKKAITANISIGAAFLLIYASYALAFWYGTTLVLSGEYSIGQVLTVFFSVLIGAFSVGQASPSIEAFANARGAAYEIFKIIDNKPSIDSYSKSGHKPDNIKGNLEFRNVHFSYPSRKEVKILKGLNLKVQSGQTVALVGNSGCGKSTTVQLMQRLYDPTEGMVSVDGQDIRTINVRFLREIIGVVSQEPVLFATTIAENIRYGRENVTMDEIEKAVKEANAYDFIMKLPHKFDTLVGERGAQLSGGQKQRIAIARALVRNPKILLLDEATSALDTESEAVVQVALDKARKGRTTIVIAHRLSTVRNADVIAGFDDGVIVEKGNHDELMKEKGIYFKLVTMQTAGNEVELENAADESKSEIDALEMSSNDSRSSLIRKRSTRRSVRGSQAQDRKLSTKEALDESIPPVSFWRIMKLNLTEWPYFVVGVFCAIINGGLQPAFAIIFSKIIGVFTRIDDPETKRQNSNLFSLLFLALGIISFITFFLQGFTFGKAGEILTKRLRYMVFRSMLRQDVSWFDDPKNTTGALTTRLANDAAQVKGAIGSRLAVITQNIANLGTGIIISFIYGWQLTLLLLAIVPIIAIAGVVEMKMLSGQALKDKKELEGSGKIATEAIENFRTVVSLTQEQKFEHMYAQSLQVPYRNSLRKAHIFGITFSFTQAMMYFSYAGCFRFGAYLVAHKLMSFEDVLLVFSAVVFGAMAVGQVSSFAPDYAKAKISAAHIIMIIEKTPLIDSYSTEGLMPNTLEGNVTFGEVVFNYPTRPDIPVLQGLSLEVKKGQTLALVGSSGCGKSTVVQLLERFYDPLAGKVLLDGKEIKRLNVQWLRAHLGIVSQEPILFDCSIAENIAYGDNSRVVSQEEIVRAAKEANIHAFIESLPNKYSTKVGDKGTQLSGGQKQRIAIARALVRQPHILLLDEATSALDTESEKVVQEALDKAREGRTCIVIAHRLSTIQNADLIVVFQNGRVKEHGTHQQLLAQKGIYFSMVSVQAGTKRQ

HT-29 = experiment: Growth inhibition of human HT-29 cells measured for 72 hrs by SRB assay; format: functional
MCF7 = experiment: Antiproliferative activity against human MCF7 cells assessed as reduction in cell growth incubated for 48 hrs by MTT assay; format: functional, cell-based; settings: MCF7, 48 h

GI50 (DU-145): 10.8 nM
SMILES: COc1cc(-c2c3c4cc(OC)c(OC(=O)[C@H](N)C(C)C)cc4oc(=O)c3n3ccc4cc(OC(=O)[C@@H](N)C(C)C)c(OC)cc4c23)ccc1OC(=O)[C@@H](N)C(C)C

IC50 [1]: 1010 nM
SMILES: CCOc1cc2c(cc1OCC)-c1c(-c3ccc(F)cc3)c(/C=N/c3ccc(O)cc3)c(-c3ccccc3)n1CC2

IC50 [1]: 190 nM
SMILES: CCOc1ccc(-c2c(C=O)c(-c3ccco3)n3c2-c2cc(OCC)c(OCC)cc2CC3)cc1OCC

GI50 (HT-29): 1280 nM
SMILES: COCCOCCOCC(=O)Oc1ccc(-c2c3c4cc(OC)c(OC(=O)COCCOCCOC)cc4oc(=O)c3n3ccc4cc(O)c(OC)cc4c23)cc1OC

More lines, now with the values behind:

SMILES: COc1cc(-c2c3c4cc(OC)c(O)cc4[nH]c(=O)c3n3ccc4cc(O)c(OC)cc4c23)ccc1O
IC50 (HeLa): 317 nM

SMILES: CCOc1cc2c(cc1OCC)-c1c(-c3ccc(Cl)cc3)c(/C=N/c3ccc(/N=C/c4c(-c5ccc(Cl)cc5)c5n(c4-c4ccccc4)CCc4cc(OC)c(OC)cc4-5)cc3)c(-c3ccccc3)n1CC2
IC50 (Acetylcholinesterase): 4690 nM

SMILES: Cc1ccc(-c2nc3c(=O)oc4ccccc4c3c3ccoc23)cc1
IC50 (MCF7): 6830 nM

SMILES: COc1cc(-c2c3c4cc(OC)c(O)cc4oc(=O)c3n3ccc4cc(O)c(OC)cc4c23)ccc1O [LAMELLARIN D]
GI50 (DU-145): 10.9 nM | GI50 (HT-29): 3000 nM

Source: ChEMBL document CHEMBL5550105, “Progress on synthesis and structure-activity relationships of lamellarins over the past decade” (Eur J Med Chem, 2024)
